Series [1] relates to PC-3. Description: Inhibition of PI3K/AKT pathway in human PC-3 cells assessed as decrease in P110alpha level at 20 uM by Western blot analysis. It is filed as cell-based. In general terms: Immunoblotting shows a protein as a band on a membrane.
In series [2] the test system is PC-3. The experiment in a line: Inhibition of PI3K/AKT pathway in human PC-3 cells assessed as decrease in AKT phosphorylation at Thr308 residue at 20 uM by Western blot analysis. It is filed as cell-based.
Another series concerns HepG2. Description: Antitumor activity against human HepG2 cells assessed as inhibition of cell proliferation incubated for 72 hrs by MTT assay. It is filed as functional, cell-based. The following applies: HepG2, 72 h. For orientation: Formazan colour is commonly taken as a measure of viable cells.
The subject of another series is MCF7. Description: Antitumor activity against human MCF7 cells assessed as inhibition of cell proliferation incubated for 72 hrs by MTT assay. It is filed as functional, cell-based. As to conditions: MCF7, 72 h.
The next series relates to DU-145. Description: Antiproliferative activity against human DU-145 cells assessed as inhibition of cell proliferation incubated for 72 hrs by MTT assay. As to conditions: DU-145, 72 h. Type of series: functional, cell-based.
Another series has as its system MGC-803. Description: Antitumor activity against human MGC-803 cells assessed as inhibition of cell proliferation incubated for 72 hrs by MTT assay. Type of series: functional, cell-based. The following applies: MGC-803, 72 h.
The test system of series [3] is PC-3. The experiment in a line: Inhibition of PI3K/AKT pathway in human PC-3 cells assessed as decrease in AKT phosphorylation at Ser473 residue at 20 uM by Western blot analysis. Type of series: cell-based.
In series [4] the test system is PC-3. The experiment in a line: Antitumor activity against human PC-3 cells assessed as inhibition of cell proliferation incubated for 72 hrs by MTT assay. Type of series: functional, cell-based. As to conditions: PC-3, 72 h.
Series [5] deals with PC-3. Description: Inhibition of PI3K/AKT pathway in human PC-3 cells assessed as decrease in P85 level at 20 uM by Western blot analysis. It is filed as cell-based.
A further series concerns LNCaP. Description: Antiproliferative activity against human LNCaP cells assessed as inhibition of cell proliferation incubated for 72 hrs by MTT assay. It is filed as functional, cell-based.
Series [6] has as its target T1, Lysine-specific demethylase 5B (Homo sapiens, UniProt Q9UGL1). Description: Inhibition of KDM5B (unknown origin).
The target in series [7] is S-phase kinase-associated protein 2 (Homo sapiens) (UniProt Q13309). Description: Inhibition of SKP2 (unknown origin) at 10 uM relative to control.
Chain of S-phase kinase-associated protein 2 (Homo sapiens) (Q13309 whole entry): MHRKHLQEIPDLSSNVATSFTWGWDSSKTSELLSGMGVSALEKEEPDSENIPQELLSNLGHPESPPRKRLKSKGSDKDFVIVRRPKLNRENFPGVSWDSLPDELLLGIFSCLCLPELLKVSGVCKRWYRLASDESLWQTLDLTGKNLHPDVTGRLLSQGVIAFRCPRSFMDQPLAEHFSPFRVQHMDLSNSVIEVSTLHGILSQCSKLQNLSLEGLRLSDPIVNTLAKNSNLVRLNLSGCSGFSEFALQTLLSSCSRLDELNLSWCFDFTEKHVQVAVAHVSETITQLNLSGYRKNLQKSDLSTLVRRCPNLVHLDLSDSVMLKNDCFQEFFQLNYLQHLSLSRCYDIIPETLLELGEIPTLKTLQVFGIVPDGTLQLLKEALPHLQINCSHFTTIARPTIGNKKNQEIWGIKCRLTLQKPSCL
The target in series [8] is Lysine-specific histone demethylase 1A (Homo sapiens) (UniProt O60341). The experiment in a line: Inhibition of LSD1 (unknown origin) at 10 uM relative to control.
Series [9] has as its target T1, Lysine-specific demethylase 5B. Description: Inhibition of KDM5B (unknown origin) at 10 uM relative to control.
Series [10] addresses T2, Protein deacetylase HDAC6 (Homo sapiens) (UniProt Q9UBN7).
T2 sequence (whole entry): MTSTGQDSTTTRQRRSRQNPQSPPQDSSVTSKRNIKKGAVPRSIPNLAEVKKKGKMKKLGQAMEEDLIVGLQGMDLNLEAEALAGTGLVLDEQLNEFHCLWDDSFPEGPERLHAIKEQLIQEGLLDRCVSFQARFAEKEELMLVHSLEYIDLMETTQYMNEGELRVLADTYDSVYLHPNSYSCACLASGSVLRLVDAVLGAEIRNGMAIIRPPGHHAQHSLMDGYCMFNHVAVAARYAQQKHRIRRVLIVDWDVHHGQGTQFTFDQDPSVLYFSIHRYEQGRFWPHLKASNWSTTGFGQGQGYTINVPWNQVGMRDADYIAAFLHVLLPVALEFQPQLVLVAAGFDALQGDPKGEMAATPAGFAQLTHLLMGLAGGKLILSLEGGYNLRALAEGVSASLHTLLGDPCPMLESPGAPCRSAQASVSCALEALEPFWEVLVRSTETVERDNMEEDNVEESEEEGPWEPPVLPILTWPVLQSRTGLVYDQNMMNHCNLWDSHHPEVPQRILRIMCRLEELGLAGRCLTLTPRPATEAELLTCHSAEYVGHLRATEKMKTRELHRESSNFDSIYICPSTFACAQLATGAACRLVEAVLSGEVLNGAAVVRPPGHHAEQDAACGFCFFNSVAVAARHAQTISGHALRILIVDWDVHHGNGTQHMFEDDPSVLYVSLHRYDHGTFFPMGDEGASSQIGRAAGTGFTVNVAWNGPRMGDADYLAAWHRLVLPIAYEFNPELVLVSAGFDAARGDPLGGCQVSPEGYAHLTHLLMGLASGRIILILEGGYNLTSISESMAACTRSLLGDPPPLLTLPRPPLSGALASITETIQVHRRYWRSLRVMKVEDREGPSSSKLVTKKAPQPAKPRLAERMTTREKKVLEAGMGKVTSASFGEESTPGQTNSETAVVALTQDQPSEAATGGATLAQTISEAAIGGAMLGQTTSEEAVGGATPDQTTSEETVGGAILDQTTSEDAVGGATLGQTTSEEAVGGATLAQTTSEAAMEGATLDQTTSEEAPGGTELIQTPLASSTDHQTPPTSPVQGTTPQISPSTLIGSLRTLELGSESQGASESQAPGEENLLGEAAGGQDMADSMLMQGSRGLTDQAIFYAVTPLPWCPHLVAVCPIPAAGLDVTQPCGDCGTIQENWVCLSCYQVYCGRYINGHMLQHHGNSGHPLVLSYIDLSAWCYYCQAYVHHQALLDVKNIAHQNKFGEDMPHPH
Description: Inhibition of HDAC6 (unknown origin) at 10 uM relative to control.

Series [11] addresses Ubiquitin carboxyl-terminal hydrolase 7 (Homo sapiens) (UniProt Q93009). The experiment in a line: Inhibition of USP7 (unknown origin) at 10 uM relative to control.
Series [12] addresses Bromodomain-containing protein 4 (Homo sapiens) (UniProt O60885). The experiment in a line: Inhibition of BRD4 (unknown origin) at 10 uM relative to control.
The test system of series [13] is PC-3. Description: Antitumor activity against human PC-3 cells xenografted in BALB/C nude mice assessed as decrease in tumor volume at 25 to 50 mg/kg, IG administered for 25 days. It is filed as functional, organism-based. The following applies: dose 25-50 mg/kg, time 25.0 day. (In general: Xenograft models place foreign cells or tissue in a host animal.)
Series [14] is described as follows: Toxicity in BALB/C nude mouse xenografted with human PC-3 cells assessed as effect on body weight at 25 mg/kg, IG administered for 25 days. It is filed as organism-based. The following applies: in vivo, po, 600 h, time 25 day.
A short description of series [15]: Toxicity in BALB/C nude mouse xenografted with human PC-3 cells assessed as heart damage at 25 mg/kg, IG administered for 25 days by H&E staining based analysis. Type of series: organism-based. As to conditions: in vivo, po, 600 h, time 25 day.
Series [16] can be described thus: Toxicity in BALB/C nude mouse xenografted with human PC-3 cells assessed as spleen damage at 25 mg/kg, IG administered for 25 days by H&E staining based analysis. The following applies: in vivo, po, 600 h, time 25 day. Type of series: organism-based.
The nature of series [17]: Toxicity in BALB/C nude mouse xenografted with human PC-3 cells assessed as liver damage at 25 mg/kg, IG administered for 25 days by H&E staining based analysis. It is filed as organism-based. The following applies: in vivo, po, 600 h, time 25 day.
Series [18] in a line: Toxicity in BALB/C nude mouse xenografted with human PC-3 cells assessed as decrease in cell density at 25 mg/kg, IG administered for 25 days by H&E staining based analysis. Type of series: organism-based. As to conditions: in vivo, po, 600 h, time 25 day.
A short description of series [19]: Toxicity in BALB/C nude mouse xenografted with human PC-3 cells assessed as reduction in prostate gland cells at 25 mg/kg, IG administered for 25 days by H&E staining based analysis. The following applies: in vivo, po, 600 h, time 25 day. Type of series: organism-based.
Series [20] is described as follows: Toxicity in BALB/C nude mouse xenografted with human PC-3 cells assessed as indistinct prostate tube wall at 25 mg/kg, IG administered for 25 days by H&E staining based analysis. Type of series: organism-based. The following applies: in vivo, po, 600 h, time 25 day.
Series [21] is described as follows: Toxicity in BALB/C nude mouse xenografted with human PC-3 cells assessed as irregular fissures at 25 mg/kg, IG administered for 25 days by H&E staining based analysis. It is filed as organism-based. The following applies: in vivo, po, 600 h, time 25 day.
In series [22] the test system is PC-3. The experiment in a line: Antitumor activity against human PC-3 cells xenografted in BALB/C nude mice assessed as decrease in tumor weight at 25 mg/kg, IG administered for 25 days. It is filed as functional, organism-based. The following applies: time 25.0 day.

SMILES strings stand for the structures. Activity calls are given as the source filed them. The rule behind the calls is not given here.

T1 sequence (Q9UGL1 whole entry): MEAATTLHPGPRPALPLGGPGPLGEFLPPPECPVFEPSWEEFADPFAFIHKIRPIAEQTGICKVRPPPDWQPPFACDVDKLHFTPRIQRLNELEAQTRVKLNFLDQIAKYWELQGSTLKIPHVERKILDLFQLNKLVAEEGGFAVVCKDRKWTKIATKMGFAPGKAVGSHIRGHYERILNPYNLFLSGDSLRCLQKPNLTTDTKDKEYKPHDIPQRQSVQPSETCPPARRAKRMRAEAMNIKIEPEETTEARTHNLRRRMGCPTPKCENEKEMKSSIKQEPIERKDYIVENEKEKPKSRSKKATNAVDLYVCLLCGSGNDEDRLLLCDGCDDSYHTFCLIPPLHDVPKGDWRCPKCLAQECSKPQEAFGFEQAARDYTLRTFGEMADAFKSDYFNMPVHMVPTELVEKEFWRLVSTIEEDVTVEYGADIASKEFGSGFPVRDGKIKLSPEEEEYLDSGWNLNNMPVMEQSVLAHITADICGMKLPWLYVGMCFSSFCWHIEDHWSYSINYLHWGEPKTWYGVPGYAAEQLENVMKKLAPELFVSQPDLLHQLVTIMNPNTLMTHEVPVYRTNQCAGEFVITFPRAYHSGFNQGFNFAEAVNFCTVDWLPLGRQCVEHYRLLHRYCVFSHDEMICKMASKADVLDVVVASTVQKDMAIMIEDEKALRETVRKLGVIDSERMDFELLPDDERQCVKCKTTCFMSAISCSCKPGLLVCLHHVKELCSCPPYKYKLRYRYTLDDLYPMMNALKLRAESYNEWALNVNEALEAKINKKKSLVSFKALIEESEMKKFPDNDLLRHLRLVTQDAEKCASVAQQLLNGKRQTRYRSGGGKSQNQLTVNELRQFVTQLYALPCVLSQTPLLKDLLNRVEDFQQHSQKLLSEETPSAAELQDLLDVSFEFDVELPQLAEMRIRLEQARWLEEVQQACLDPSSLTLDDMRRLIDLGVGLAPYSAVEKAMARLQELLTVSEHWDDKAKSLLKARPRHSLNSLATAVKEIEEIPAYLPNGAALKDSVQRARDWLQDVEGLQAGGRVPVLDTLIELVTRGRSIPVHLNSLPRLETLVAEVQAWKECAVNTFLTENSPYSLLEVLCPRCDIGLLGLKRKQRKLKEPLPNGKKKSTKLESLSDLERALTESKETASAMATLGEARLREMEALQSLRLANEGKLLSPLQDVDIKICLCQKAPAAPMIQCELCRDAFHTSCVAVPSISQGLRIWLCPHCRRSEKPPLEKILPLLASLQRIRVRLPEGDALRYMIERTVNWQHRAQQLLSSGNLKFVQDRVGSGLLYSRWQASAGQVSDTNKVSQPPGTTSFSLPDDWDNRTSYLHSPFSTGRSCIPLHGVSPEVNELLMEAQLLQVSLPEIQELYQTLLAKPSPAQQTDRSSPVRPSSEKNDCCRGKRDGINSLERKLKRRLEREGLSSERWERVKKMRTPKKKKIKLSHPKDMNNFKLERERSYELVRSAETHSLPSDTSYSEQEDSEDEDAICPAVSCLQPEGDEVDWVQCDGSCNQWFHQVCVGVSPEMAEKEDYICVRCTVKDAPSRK
Chain of Ubiquitin carboxyl-terminal hydrolase 7 (Homo sapiens) (Q93009 whole entry, looked up): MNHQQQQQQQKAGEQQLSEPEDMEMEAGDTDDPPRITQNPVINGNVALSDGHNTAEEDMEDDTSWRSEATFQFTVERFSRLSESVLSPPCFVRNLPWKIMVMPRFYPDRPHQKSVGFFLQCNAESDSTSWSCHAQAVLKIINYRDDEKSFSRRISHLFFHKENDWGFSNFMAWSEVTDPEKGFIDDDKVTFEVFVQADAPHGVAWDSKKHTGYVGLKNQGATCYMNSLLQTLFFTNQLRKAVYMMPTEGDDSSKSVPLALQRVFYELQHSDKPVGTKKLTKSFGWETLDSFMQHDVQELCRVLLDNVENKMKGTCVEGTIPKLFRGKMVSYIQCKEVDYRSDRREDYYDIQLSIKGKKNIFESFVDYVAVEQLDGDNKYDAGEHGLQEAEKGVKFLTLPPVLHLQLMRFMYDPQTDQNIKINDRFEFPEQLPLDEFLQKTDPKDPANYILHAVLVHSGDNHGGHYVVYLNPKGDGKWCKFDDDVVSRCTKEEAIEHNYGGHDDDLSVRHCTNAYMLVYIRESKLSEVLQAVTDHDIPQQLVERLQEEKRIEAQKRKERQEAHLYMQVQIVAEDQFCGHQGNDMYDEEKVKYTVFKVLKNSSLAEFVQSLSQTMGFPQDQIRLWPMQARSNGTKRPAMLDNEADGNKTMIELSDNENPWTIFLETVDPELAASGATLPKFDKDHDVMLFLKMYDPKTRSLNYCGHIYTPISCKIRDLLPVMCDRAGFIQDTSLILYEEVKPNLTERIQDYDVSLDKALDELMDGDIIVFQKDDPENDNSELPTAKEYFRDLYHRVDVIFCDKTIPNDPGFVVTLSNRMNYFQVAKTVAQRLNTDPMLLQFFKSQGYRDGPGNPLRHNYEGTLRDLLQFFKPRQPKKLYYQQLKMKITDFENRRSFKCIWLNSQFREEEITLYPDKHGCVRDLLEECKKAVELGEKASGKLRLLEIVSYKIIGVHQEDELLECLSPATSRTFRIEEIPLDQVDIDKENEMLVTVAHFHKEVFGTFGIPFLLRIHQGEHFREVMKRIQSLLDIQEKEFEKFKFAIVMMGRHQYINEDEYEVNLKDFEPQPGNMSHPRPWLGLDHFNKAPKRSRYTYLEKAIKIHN

For `CC(C)c1c(-c2ccccc2)[nH]c2c(C#N)cnn2c1=O`, the inhibition entry in the series with PC-3 [1], with PC-3 [2], with PC-3 [3] and in the series on PC-3 [5] was “Active” throughout. Also, the IC50 was found to be 42.6 µM in the series with HepG2; 35.4 µM in the series on MCF7; 35.9 µM in the series with DU-145; 33.7 µM in the series on MGC-803; 26.7 µM in the series on PC-3 [4]; 29.6 µM in the series on LNCaP. For the same molecule, in series [6], the IC50 is 0.011 µM.
`CC(C)n1ncc2c(C(=O)NCc3cn(Cc4ccccc4)nn3)cccc21`: the inhibition in series [7] was found to be 11%; in series [8], 31%; in [9], 56%; in series [10] it was 27%; in [11] it was 16%; in series [12] it was 9%.
For the molecule `COc1cccc2c1C(=O)c1c(O)c3c(c(O)c1C2=O)C[C@@](O)(C(=O)CO)C[C@@H]3O[C@H]1C[C@H](N)[C@H](O)[C@H](C)O1` [DOXORUBICIN], the result in the series on PC-3 [13] and in the series on PC-3 [22] was Active. Besides, the Activity entry in [14], in series [15], in series [16], in series [17], in series [18] and in series [19] was “Toxic” throughout. Besides, the Activity entry in series [20] and in series [21] was “Toxic” throughout.

What is called inhibition is the relative decrease from the control value, in per cent. A word on the IC50: it is the concentration that gives 50% inhibition.
